The results in this text go back to patent US20260274865A1, “Fused Ring Compound and Preparation Method Therefor and Use Thereof” (SICHUAN KELUN-BIOTECH BIOPHARMACEUTICAL CO., LTD., priority 2023, published 2026).

Read-outs that look alike come from different tables or passages of the source.

What all share (format): cell-based
In one assay the test system is HT29 colon cancer cells. Nature of the assay: Inhibitory effect of compounds on HT29 cell proliferation (Cell Counting-Lite 2.0, 72 h). Particulars: Homo sapiens. As to the method: (1) Cell plating: First, tumor cells HT29 were cultured in the corresponding culture medium, the cells were digested with trypsin, and the cells were resuspended after centrifugation and counted. The cells were adjusted to an appropriate concentration for plating.
(§1) Co-incubation of the compound of the present invention and tumor cells: After the cells adhered, the culture medium was removed from the cell culture plates, and the diluted biologically active molecule (the compound of the present invention) was added to the wells of the above plate, and incubated for 72 hours.
(§2) Detection of in vitro cell activity: After the incubation was completed, 50 μL of Cell Counting-Lite™ 2.0 reagent (Vazyme) was added to each well, shaken and mixed well in the dark to perform the reaction for 10 minutes, then the detection was carried out, and a microplate reader (manufacturer: BMG, model: PHERAStar-FS) was used for reading. The background RLU was obtained using Cell Counting-Lite™ reagent in cell-free culture medium, and the solvent RLU was obtained using Cell Counting-Lite™ reagent in cell-containing culture medium. […] RLU: relative light unit.

Assay [1] concerns NCI-N87 human gastric cancer cells. Briefly: Inhibitory effects of compounds on NCI-N87 cell proliferation (Cell Counting-Lite 2.0, 72 h). The conditions noted are these: NCI-N87, 72 h. As for the experimental part:
(1) Cell plating: First, tumor cells NCI-N87 were cultured in the corresponding culture medium, the cells were digested with trypsin, and the cells were resuspended after centrifugation and counted. The cells were adjusted to an appropriate concentration for plating.
as §1, §2

Another assay relates to HCC1954 cells. Briefly: Inhibitory effect of compounds on proliferation of HCC1954 cells (Cell Counting-Lite 2.0, 72 h). The conditions noted are these: Homo sapiens. As for the experimental part: (1) Cell plating: First, tumor cells HCC1954 were cultured in the corresponding culture medium, the cells were digested with trypsin, and the cells were resuspended after centrifugation and counted. The cells were adjusted to an appropriate concentration for plating.
as §1, §2

The subject of assay [2] is NCI-H1975 human non-small cell lung cancer cells. Nature of the assay: Inhibitory effect of compounds on proliferation of NCI-H1975 cells (Cell Counting-Lite 2.0, 72 h). The conditions noted are these: Table 10, incubated for 72 hours. As for the experimental part: (1) Cell plating: First, tumor cells NCI-H1975 were cultured in the corresponding culture medium, the cells were digested with trypsin, and the cells were resuspended after centrifugation and counted. The cells were adjusted to an appropriate concentration for plating.
as §1, §2

The subject of assay [3] is HCC827 human non-small cell lung cancer cells. Nature of the assay: Inhibitory effect of compounds on HCC827 cell proliferation (Cell Counting-Lite 2.0, 72 h). Particulars: Table 6, incubated for 72 hours, read-out: Inhibition activity of compounds on proliferation of HCC827 cells IC50. As to the method: (1) Cell plating: First, tumor cells HCC827 were cultured in the corresponding culture medium, the cells were digested with trypsin, and the cells were resuspended after centrifugation and counted. The cells were adjusted to an appropriate concentration for plating.
as §1, §2

Setting [4] is: HT-29, Table 4-2, incubated for 72 hours.
[5] abbreviates: Table 2-2, incubated for 72 hours.
Where [6] appears, read: Table 8-2, incubated for 72 hours, read-out: Inhibitory activity of compounds on proliferation of HCC1954 cells IC50.
The mark [7] stands for this setting: HT-29, Table 4-1, incubated for 72 hours.
Where [8] appears, read: Table 2-1, incubated for 72 hours.
The mark [9] stands for this setting: Table 8-1, incubated for 72 hours, read-out: Inhibition activity of compounds on proliferation of HCC1954 cells IC50.

On to `COc1cc2c(cc1OCCCCCOc1cc3c(cc1OC)C(=O)N1CC4(CC4)C[C@H]1CN3)NC[C@@H]1CC(c3ccc(O)cc3)=CN1C2=O` [Compound 7-3, (S)-8-((5-(((S)-2-(4-Hydroxyphenyl)-7-methoxy-5-oxo-5,10,11,11a-tetrahydro-1H-benzo[e]pyrrolo[1,2-a][1,4]diazepin-8-yl)oxy)pentyl)oxy)-7-methoxy-1,10,11,11a-tetrahydro-3H,5H-spiro[benzo[e]pyrrolo[1,2-a][1,4]diazepin-2,1′-cyclopropane]-5-one], for which the IC50 in the assay with HT29 colon cancer cells (setting [4]) came out at 10.2 nM; in assay [1] (setting [5]), 79.3 nM; in the assay with HCC1954 cells (setting [6]), 208 nM; in assay [2] it was 124 nM.
On to `COc1cc2c(cc1OCCCCCOc1cc3c(cc1OC)C(=O)N1CC4(CC4)C[C@H]1CN3)NC[C@@H]1CC(c3ccc(N)cc3)=CN1C2=O` [Compound 7-5, (S)-8-((5-(((S)-2-(4-Aminophenyl)-7-methoxy-5-oxo-5,10,11,11a-tetrahydro-1H-benzo[e]pyrrolo[1,2-a][1,4]diazepin-8-yl)oxy)pentyl)oxy)-7-methoxy-1,10,11,11-tetrahydro-3H,5H-spiro[benzo[e]pyrrolo[1,2-a][1,4]diazepin-2,1′-cyclopropane]-5-one], for which the IC50 was 1.4 nM in the assay on HT29 colon cancer cells (setting [7]); 3.2 nM in assay [1] (setting [8]); 4.1 nM in assay [1] (setting [5]); 25.9 nM with HCC1954 cells (setting [9]); 13.1 nM in assay [3]; 12.3 nM in assay [2].
Consider `COc1cc2c(cc1OCCCCCOc1cc3c(cc1OC)C(=O)N1CC4(CC4)C[C@H]1CN3)NC[C@@H]1CC3(CC3)CN1C2=O` [Compound 7-9], for which the IC50 is 14.9 nM in the assay with HT29 colon cancer cells (setting [7]); 29.7 nM in assay [1] (setting [8]); 125 nM in the assay with HCC1954 cells (setting [9]); 116 nM in assay [3]; 107 nM in assay [2].
`COc1cc2c(cc1OCCCCCOc1cc3c(cc1OC)C(=O)N1CC(F)(F)C[C@H]1CN3)NC[C@@H]1CC(c3ccc(N)cc3)=CN1C2=O` [Compound 7-29, (S)-2-(4-aminophenyl)-8-((5-(((S)-2,2-difluoro-7-methoxy-5-oxo-2,3,5,10,11,11a-hexahydro-1H-benzo[e]pyrrolo[1,2-a][1,4]diazepin-8-yl)oxy)pentyl)oxy)-7-methoxy-1,10,11,11a-tetrahydro-5H-benzo[e]pyrrolo[1,2-a][1,4]diazepin-5-one]: the IC50 amounted to 117 nM in assay [1] (setting [5]) and 154 nM in the assay with HCC1954 cells (setting [6]).
Consider `COc1cc2c(cc1OCCCCCOc1cc3c(cc1OC)C(=O)N1CC4(CC4)C[C@H]1CN3)NC[C@@H]1C[C@@H](c3ccc(N)cc3)CN1C2=O` [Compound 7-34, (S)-8-((5-(((2S,11aS)-2-(4-aminophenyl)-7-methoxy-5-oxo-2,3,5,10,11,11a-hexahydro-1H-benzo[e]pyrrolo[1,2-a][1,4]diazepin-8-yl)oxy)pentyl)oxy)-7-methoxy-1,10,11,11a-tetrahydro-3H,5H-spiro[benzo[e]pyrrolo[1,2-a][1,4]diazepin-2,1′-cyclopropane]-5-one], for which the IC50 in assay [1] (setting [5]) was found to be 120 nM.
Same read-out and setting: next, `COc1cc2c(cc1OCCCCCOc1cc3c(cc1OC)C(=O)N1CC4(CC4)C[C@H]1CN3)NC[C@@H]1C[C@H](c3ccc(N)cc3)CN1C2=O` [Compound 7-35]: 118 nM.
Take `COc1cc2c(cc1OCCCCCOc1cc3c(cc1OC)C(=O)N1CC4(CC4)C[C@H]1CN3)NC[C@@H]1CC(c3ccoc3)=CN1C2=O` [Compound 7-36, (S)-8-((5-(((S)-2-(furan-3-yl)-7-methoxy-5-oxo-5,10,11,11a-tetrahydro-1H-benzo[e]pyrrolo[1,2-a][1,4]diazepin-8-yl)oxy)pentyl)oxy)-7-methoxy-1,10,11,11a-tetrahydro-3H,5H-spiro[benzo[e]pyrrolo[1,2-a][1,4]diazepin-2,1′-cyclopropane]-5-one]: the IC50 came to 14.7 nM in the assay with HT29 colon cancer cells (setting [7]); 15.4 nM in assay [1] (setting [8]); 144 nM with HCC1954 cells (setting [9]); 126 nM in assay [3]; 114 nM in assay [2].
The matching figures for `COc1cc2c(cc1OCCCCCOc1cc3c(cc1OC)C(=O)N1CC4(CC4)C[C@H]1CN3)NC[C@@H]1CC(c3ccsc3)=CN1C2=O` [Compound 7-37, (S)-7-methoxy-8-((5-(((S)-7-methoxy-5-oxo-2-(thien-3-yl)-5,10,11,11a-tetrahydro-1H-benzo[e]pyrrolo[1,2-a][1,4]diazepin-8-yl)oxy)pentyl)oxy)-1,10,11,11a-tetrahydro-3H,5H-spiro[benzo[e]pyrrolo[1,2-a][1,4]diazepin-2,1′-cyclopropane]-5-one]: 16.2 nM, 24.2 nM, 148 nM, 124 nM and 101 nM.
The matching figures for `COc1cc2c(cc1OCCCCCOc1cc3c(cc1OC)C(=O)N1CC4(CC4)C[C@H]1CN3)NC[C@@H]1CC(c3csc(CO)c3)=CN1C2=O` [Compound 7-38, (S)-8-((5-(((S)-2-(5-(hydroxymethyl)thien-3-yl)-7-methoxy-5-oxo-5,10,11,11a-tetrahydro-1H-benzo[e]pyrrolo[1,2-a][1,4]diazepin-8-yl)oxy)pentyl)oxy)-7-methoxy-1,10,11,11a-tetrahydro-3H,5H-spiro[benzo[e]pyrrolo[1,2-a][1,4]diazepin-2,1′-cyclopropane]-5-one]: 15.4 nM, 49.7 nM, 695 nM, 139 nM and 105 nM.
On to `COc1ccc(C2=CN3C(=O)c4cc(OC)c(OCCCCCOc5cc6c(cc5OC)C(=O)N5CC(F)(F)C[C@H]5CN6)cc4NC[C@@H]3C2)cc1` [Compound 7-39, (S)-8-((5-(((S)-2,2-difluoro-7-methoxy-5-oxo-2,3,5, 10,11,11a-hexahydro-1H-benzo[e]pyrrolo[1,2-a][1,4]diazepin-8-yl)oxy)pentyl)oxy)-7-methoxy-2-(4-methoxyphenyl)-1,10,11,11a-tetrahydro-5H-benzo[e]pyrrolo[1,2-a][1,4]diazepin-5-one], for which the IC50 worked out at 9.7 nM in the assay on HT29 colon cancer cells (setting [4]), 11 nM in assay [1] (setting [5]), 140 nM in the assay with HCC1954 cells (setting [6]) and 12.3 nM in assay [2].
Take `COc1ccc(C2=CN3C(=O)c4cc(OC)c(OCCCCCOc5cc6c(cc5OC)C(=O)N5C[C@H](O)C[C@H]5CN6)cc4NC[C@@H]3C2)cc1` [Compound 7-40, (S)-8-((5-(((2R,11aS)-2-hydroxy-7-methoxy-5-oxo-2,3,5,10,11,11a-hexahydro-1H-benzo[e]pyrrolo[1,2-a][1,4]diazepin-8-yl)oxy)pentyl)oxy)-7-methoxy-2-(4-methoxyphenyl)-1,10,11,11a-tetrahydro-5H-benzo[e]pyrrolo[1,2-a][1,4]diazepin-5-one]: the IC50 in assay [1] (setting [5]) is 93.6 nM; in the assay with HCC1954 cells (setting [6]), 128 nM.
Take `C=C1C[C@H]2CNc3cc(OCCCCCOc4cc5c(cc4OC)C(=O)N4C=C(c6ccc(OC)cc6)C[C@H]4CN5)c(OC)cc3C(=O)N2C1` [Compound 7-41, (S)-7-methoxy-8-((5-(((S)-7-methoxy-2-methylene-5-oxo-2,3,5,10,11,11a-hexahydro-1H-benzo[e]pyrrolo[1,2-a][1,4]diazepin-8-yl)oxy)pentyl)oxy)-2-(4-methoxyphenyl)-1,10,11,11a-tetrahydro-5H-benzo[e]pyrrolo[1,2-a][1,4]diazepin-5-one]: the IC50 with HT29 colon cancer cells (setting [7]) was 9.8 nM; in assay [1] (setting [8]), 12.7 nM; with HCC1954 cells (setting [9]), 259 nM; in assay [3], 225 nM; in assay [2], 69.9 nM.
On to `COc1ccc(C2=CN3C(=O)c4cc(OC)c(OCCCCCOc5cc6c(cc5OC)C(=O)N5[C@H](CN6)C[C@H]6C[C@H]65)cc4NC(=O)[C@@H]3C2)cc1` [Compound 7-42], for which the results for the IC50 (in the assay with HT29 colon cancer cells (setting [4]); in assay [1] (setting [5])) were 99.7 nM and 100 nM, respectively.
The matching figures for `COc1ccc(C2=CN3C(=O)c4cc(OC)c(OCCCCCOc5cc6c(cc5OC)C(=O)N5[C@H](CN6)C[C@H]6C[C@H]65)cc4NC[C@@H]3C2)cc1` [Compound 7-43, (1aR,9aS,10aR)-5-methoxy-6-((5-(((S)-7-methoxy-2-(4-methoxyphenyl)-5-oxo-5,10,11,11a-tetrahydro-1H-benzo[e]pyrrolo[1,2-a][1,4]diazepin-8-yl)oxy)pentyl)oxy)-1a,8,9,9a,10,10a-hexahydrobenzo[e]cyclopropo[4,5]pyrrolo[1,2-a][1,4]diazepin-3(1H)-one]: 10.2 nM and 10.1 nM.
